Assay results published in ChEMBL document CHEMBL5543162, “Discovery of a Novel Orally Bioavailable FLT3-PROTAC Degrader for Efficient Treatment of Acute Myeloid Leukemia and Overcoming Resistance of FLT3 Inhibitors” (J Med Chem, 2024).

Experiments:
[1] = Oral bioavailability in Sprague-Dawley rat at 10 mg/kg measured for 24 hrs by LC-MS/MS analysis; type: ADME, organism-based; conditions: in vivo
[2] = test system: MV4-11; test: Antitumor activity against human MV4-11 cells xenografted in nu/nu mouse at 2.5 mg/kg, po administered daily for 2 weeks relative to control; type: functional; conditions: MV4-11, 336 h, read-out: TGI
[3] = Toxicity in nu/nu mouse xenografted with human MV4-11 cells assessed as damage in spleen at 1.25 to 10 mg/kg, po administered daily for 2 weeks by H and E staining based analysis; type: organism-based; conditions: in vivo, 336 h, dose 1.25-10 mg/kg
[4] = Toxicity in nu/nu mouse xenografted with human MV4-11 cells assessed as damage in kidney at 1.25 to 10 mg/kg, po administered daily for 2 weeks by H and E staining based analysis; type: organism-based; conditions: in vivo, 336 h, dose 1.25-10 mg/kg
[5] = test system: BaF3; test: Antiproliferative activity against mouse Ba/F3 cells expressing FLT3-ITD F691L mutant incubated for 48 hrs by CCK8 assay; type: functional, cell-based; conditions: BaF3, 48 h
[6] = Stability in rat liver microsomes assessed as hepatic clearance; type: ADME, Microsome
[7] = molecular target: Voltage-gated inwardly rectifying potassium channel KCNH2 (Homo sapiens, UniProt Q12809); test: Inhibition of hERG; type: toxicity
Voltage-gated inwardly rectifying potassium channel KCNH2, sequence (Q12809 whole entry): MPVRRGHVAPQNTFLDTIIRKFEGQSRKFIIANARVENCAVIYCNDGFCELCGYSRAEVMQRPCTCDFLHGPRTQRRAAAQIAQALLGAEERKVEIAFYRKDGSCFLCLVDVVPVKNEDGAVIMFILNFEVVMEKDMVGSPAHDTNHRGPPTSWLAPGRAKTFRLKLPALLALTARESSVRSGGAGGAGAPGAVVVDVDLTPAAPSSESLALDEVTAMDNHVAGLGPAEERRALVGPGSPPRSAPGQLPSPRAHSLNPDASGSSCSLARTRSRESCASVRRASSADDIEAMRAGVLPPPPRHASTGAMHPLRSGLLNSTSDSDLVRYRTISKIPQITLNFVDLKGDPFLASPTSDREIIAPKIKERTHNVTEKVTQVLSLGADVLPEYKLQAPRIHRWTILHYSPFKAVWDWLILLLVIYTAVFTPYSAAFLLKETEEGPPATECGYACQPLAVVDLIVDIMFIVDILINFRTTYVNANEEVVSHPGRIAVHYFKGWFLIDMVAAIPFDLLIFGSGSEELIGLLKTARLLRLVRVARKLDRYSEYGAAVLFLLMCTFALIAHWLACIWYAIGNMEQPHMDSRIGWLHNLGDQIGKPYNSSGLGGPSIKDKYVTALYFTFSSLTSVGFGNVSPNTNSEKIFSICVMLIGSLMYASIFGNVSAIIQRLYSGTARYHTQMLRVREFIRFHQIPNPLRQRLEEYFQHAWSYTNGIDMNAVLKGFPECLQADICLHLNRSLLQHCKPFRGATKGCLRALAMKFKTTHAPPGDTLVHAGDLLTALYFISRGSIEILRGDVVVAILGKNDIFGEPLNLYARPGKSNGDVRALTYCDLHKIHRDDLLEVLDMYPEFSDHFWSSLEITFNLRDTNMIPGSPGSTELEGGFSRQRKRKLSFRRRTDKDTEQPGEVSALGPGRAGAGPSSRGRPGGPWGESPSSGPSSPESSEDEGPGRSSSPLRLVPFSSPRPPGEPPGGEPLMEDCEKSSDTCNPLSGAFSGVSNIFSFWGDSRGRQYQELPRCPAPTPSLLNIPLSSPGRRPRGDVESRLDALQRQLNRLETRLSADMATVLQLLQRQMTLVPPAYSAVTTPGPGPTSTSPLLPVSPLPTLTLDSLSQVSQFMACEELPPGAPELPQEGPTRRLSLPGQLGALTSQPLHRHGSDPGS

For `Cc1c(NC(=O)CN2CCN(CC3CCN(c4ccc5c(c4)C(=O)N(C4CCC(=O)NC4=O)C5=O)CC3)CC2)c[nH]c1/C=C1\C(=O)Nc2ccc(F)cc21` (configuration not stated), the bioavailability [1] was 53%, the inhibition in vivo at 2.5 mg/kg [2] was 84.4% and the Activity [3] was “Non-Toxic”. For the same molecule, the Activity [4] was “Non-Toxic”, the IC50 [5] was 66.2 nM and the CLhep predicted [6] was 20.5 mL/min/kg. For the same molecule, the IC50 [7] was > 40 µM.
